A short description of this experiment: Inhibition of dUTPase in human HeLa S3 cells assessed as potentiation of 1 uM FdUrd-induced decrease in cell density incubated for 24 hrs by crystal violet assay.
By EC50 is commonly meant the concentration giving half of the maximal effect. In the case of `CC[C@@](O)(Cn1nncc1CCCCn1ccc(=O)[nH]c1=O)c1ccc(F)c(OCC2CC2)c1`, the EC50 turned out to be 70 nM.

In the case of `CC[C@@H](Cn1nncc1CCCCn1ccc(=O)[nH]c1=O)c1cccc(OCC2CC2)c1`, the EC50 worked out at 50 nM.

As to `O=c1ccn(CCCCc2cnnn2CCc2cccc(OCC3CC3)c2)c(=O)[nH]1`, the EC50 was found to be 260 nM.

On to `O=c1ccn(CCCc2cnnn2CC(c2ccccc2)c2ccccc2)c(=O)[nH]1`, for which the EC50 was determined as 1100 nM.

The record behind these values is BindingDB's records for doi:10.1021/jm3004174 (Taiho Pharmaceutical, 2012).
